The results in this text go back to US9475775B2, “Benzazepine dicarboxamide compounds” (Hoffmann-La Roche Inc., priority 2015, dated 2016).

The target of one assay is human TLR8 (Homo sapiens (Human), UniProt Q9NR97). Description: HEK-Blue human TLR8 cells, NF-κB SEAP reporter assay. The class given is cell-based. To be noted: stimulation for 20 hours. The method, boiled down: (§1)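 HEK-Blue cells carrying human TLR7 or TLR8 with an NF-κB/AP-1-driven SEAP reporter, stimulated 20 hours. Supernatant SEAP measured with Quanti Blue at 640 nm; EC50 derived from concentration-response.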
(In general: Reporter assays use an easily measured gene product as a stand-in for the process of interest.)

The target in a further assay is human TLR7 (Homo sapiens (Human), UniProt Q9NYK1). Kind of assay: HEK-Blue human TLR7 cells, NF-κB SEAP reporter assay. The class given is cell-based. To be noted: stimulation for 20 hours. In short, it runs like this: as §1

By EC50 is commonly meant the concentration giving half of the maximal effect. A low value points to higher potency in that assay.

Sequence of human TLR8 (Q9NR97 27-1041): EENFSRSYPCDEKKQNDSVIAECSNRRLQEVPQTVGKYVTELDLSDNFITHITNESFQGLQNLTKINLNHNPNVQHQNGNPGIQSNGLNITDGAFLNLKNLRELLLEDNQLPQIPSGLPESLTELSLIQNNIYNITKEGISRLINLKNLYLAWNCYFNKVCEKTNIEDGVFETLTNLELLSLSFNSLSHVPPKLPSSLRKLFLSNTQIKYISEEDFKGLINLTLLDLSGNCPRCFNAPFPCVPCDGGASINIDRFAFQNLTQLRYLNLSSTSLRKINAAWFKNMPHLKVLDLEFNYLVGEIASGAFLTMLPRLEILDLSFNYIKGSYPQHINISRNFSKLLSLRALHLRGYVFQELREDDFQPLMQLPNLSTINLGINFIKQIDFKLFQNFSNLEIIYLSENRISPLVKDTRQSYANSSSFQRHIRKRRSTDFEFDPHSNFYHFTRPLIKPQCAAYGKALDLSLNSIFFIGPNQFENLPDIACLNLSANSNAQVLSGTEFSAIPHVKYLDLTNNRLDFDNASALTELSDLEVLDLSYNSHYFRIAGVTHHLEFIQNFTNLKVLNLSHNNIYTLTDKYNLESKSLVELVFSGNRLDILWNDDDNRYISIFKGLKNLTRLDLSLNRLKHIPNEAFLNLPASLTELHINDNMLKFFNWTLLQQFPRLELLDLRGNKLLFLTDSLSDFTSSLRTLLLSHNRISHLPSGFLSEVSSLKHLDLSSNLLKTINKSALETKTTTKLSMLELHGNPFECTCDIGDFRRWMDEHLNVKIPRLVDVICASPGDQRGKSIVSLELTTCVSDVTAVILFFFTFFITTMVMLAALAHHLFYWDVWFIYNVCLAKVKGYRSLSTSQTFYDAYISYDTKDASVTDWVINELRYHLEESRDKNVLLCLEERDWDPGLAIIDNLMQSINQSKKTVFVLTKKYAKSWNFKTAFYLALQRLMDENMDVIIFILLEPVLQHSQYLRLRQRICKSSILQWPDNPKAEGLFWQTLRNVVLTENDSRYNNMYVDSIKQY
Sequence of human TLR7 (Q9NYK1 27-1049): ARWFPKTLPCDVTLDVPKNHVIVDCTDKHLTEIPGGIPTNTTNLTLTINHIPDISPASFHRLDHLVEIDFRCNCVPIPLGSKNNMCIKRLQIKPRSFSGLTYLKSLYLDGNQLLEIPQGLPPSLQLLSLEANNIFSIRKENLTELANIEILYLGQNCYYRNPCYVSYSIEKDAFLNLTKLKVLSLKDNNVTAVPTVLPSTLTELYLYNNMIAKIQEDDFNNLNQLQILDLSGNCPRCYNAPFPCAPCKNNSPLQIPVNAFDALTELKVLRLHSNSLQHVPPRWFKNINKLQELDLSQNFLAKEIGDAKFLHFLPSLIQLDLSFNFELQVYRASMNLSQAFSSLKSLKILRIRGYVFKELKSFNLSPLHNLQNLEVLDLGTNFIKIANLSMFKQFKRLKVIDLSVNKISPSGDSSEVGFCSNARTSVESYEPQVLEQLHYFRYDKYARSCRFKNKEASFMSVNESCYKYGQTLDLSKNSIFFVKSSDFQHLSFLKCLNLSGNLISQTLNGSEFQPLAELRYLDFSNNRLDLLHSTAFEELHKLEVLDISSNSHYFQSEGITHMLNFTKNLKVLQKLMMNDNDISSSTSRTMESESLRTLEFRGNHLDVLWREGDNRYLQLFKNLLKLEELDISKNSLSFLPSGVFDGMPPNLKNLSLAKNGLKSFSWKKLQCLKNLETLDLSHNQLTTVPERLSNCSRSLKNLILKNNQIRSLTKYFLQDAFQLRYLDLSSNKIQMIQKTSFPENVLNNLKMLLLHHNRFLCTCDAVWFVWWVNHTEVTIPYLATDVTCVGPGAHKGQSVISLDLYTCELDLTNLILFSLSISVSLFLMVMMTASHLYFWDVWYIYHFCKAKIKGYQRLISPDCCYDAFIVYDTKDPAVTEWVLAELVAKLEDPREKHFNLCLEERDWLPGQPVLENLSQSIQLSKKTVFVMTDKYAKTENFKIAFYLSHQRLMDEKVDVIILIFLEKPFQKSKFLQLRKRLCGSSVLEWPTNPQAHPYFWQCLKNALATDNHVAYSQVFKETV

Turning to `CCCN(CCC)C(=O)C1=Cc2ccc(C(=O)Nc3cccc(CCCN)c3)cc2N=C(N)C1` [Example 59, 2-Amino-N8-[3-(3-aminopropyl)phenyl]-N4,N4-dipropyl-3H-1-benzazepine-4,8-dicarboxamide], the EC50 on human TLR8 was 3 nM; on human TLR7, more than 100000 nM.
The matching figures for `CCCN(Cc1ccc(CN)cc1)C(=O)C1=Cc2ccc(C(=O)Nc3cccc(C)c3)cc2N=C(N)C1` [Example 60, 2-Amino-N4-[[4-(aminomethyl)phenyl]methyl]-N8-(m-tolyl)-N4-propyl-3H-1-benzazepine-4,8-dicarboxamide]: 27 nM and more than 100000 nM.
Consider `CCCN(CCC)C(=O)C1=Cc2ccc(C(=O)Nc3ccc(CCCN)cc3)cc2N=C(N)C1` [Example 61, 2-Amino-N8-[4-(3-aminopropyl)phenyl]-N4,N4-dipropyl-3H-1-benzazepine-4,8-dicarboxamide], for which the values for the EC50 at human TLR8 and at human TLR7 were 5 nM and more than 100000 nM, respectively.
For `CCCN(CCC)C(=O)C1=Cc2ccc(C(=O)Nc3cccc(CCCCN)c3)cc2N=C(N)C1` [Example 62] the same measures were 7 nM and more than 100000 nM.
As for `CCCN(CCC)C(=O)C1=Cc2ccc(C(=O)Nc3ccc(F)c(CCN)c3)cc2N=C(N)C1` [Example 63, 2-Amino-N8-[3-(2-aminoethyl)-4-fluoro-phenyl]-N4,N4-dipropyl-3H-1-benzazepine-4,8-dicarboxamide], the EC50 is 11 nM on human TLR8 and more than 100000 nM on human TLR7.
For `CCCN(CCC)C(=O)C1=Cc2ccc(C(=O)Nc3cc(Cl)cc(CCN)c3)cc2N=C(N)C1` [Example 64, 2-Amino-N8-[3-(2-aminoethyl)-5-chloro-phenyl]-N4,N4-dipropyl-3H-1-benzazepine-4,8-dicarboxamide] the same measures were 29 nM and more than 100000 nM.
For `CCCCN(CCO)C(=O)C1=Cc2ccc(C(=O)Nc3cccc(C)c3)cc2N=C(N)C1` [Example 65, 2-Amino-N4-butyl-N4-(2-hydroxyethyl)-N8-(m-tolyl)-3H-1-benzazepine-4,8-dicarboxamide] the same measures were 6 nM and more than 100000 nM.
`CCCN(CCC)C(=O)C1=Cc2ccc(C(=O)Nc3cncc(OCCN)c3)cc2N=C(N)C1` [Example 66, 2-Amino-N8-[5-(2-aminoethoxy)-3-pyridyl]-N4,N4-dipropyl-3H-1-benzazepine-4,8-dicarboxamide]: the EC50 at human TLR8 is 31 nM; on human TLR7, more than 100000 nM.
In the case of `CCCN(CCC)C(=O)C1=Cc2ccc(C(=O)Nc3cncc(CNC(=O)OCc4ccccc4)c3)cc2N=C(N)C1` [Example 67, Benzyl N-[[5-[[2-amino-4-(dipropylcarbamoyl)-3H-1-benzazepine-8-carbonyl]amino]-3-pyridyl]methyl]carbamate], the EC50 at human TLR8 is 4 nM; at human TLR7, more than 100000 nM.
The matching figures for `CCCN(CCC)C(=O)C1=Cc2ccc(C(=O)Nc3cncc(/C=C/CN)c3)cc2N=C(N)C1` [Example 68, 2-Amino-N8-[5-[(E)-3-aminoprop-1-enyl]-3-pyridyl]-N4,N4-dipropyl-3H-1-benzazepine-4,8-dicarboxamide]: 8 nM and more than 100000 nM.
For `CCCN(CCC)C(=O)C1=Cc2ccc(C(=O)Nc3cncc(CCc4ccccc4)c3)cc2N=C(N)C1` [Example 69, 2-Amino-N8-[5-(2-phenylethyl)-3-pyridyl]-N4,N4-dipropyl-3H-1-benzazepine-4,8-dicarboxamide] the same measures were 8 nM and more than 100000 nM.
For `CCCN(CCC)C(=O)C1=Cc2ccc(C(=O)Nc3cncc(CCc4ccc(OC)cc4)c3)cc2N=C(N)C1` [Example 70, 2-Amino-N8-[5-[2-(4-methoxyphenyl)ethyl]-3-pyridyl]-N4,N4-dipropyl-3H-1-benzazepine-4,8-dicarboxamide] the same measures were 12 nM and more than 100000 nM.
For `CCCN(CCC)C(=O)C1=Cc2ccc(C(=O)Nc3cncc(CCc4ccc(CN)cc4)c3)cc2N=C(N)C1` [Example 71, 2-Amino-N8-[5-[2-[4-(aminomethyl)phenyl]ethyl]-3-pyridyl]-N4,N4-dipropyl-3H-1-benzazepine-4,8-dicarboxamide], the EC50 is 29 nM at human TLR8 and more than 100000 nM on human TLR7.
For `CCCN(CCC)C(=O)C1=Cc2ccc(C(=O)Nc3cncc(CCCCCN)c3)cc2N=C(N)C1` [Example 72, 2-Amino-N8-[5-(5-aminopentyl)-3-pyridyl]-N4,N4-dipropyl-3H-1-benzazepine-4,8-dicarboxamide] the same measures were 25 nM and more than 100000 nM.
For `CCCN(CCC)C(=O)C1=Cc2ccc(C(=O)Nc3cncc(CCc4cccc(OC)c4)c3)cc2N=C(N)C1` [Example 73, 2-Amino-N8-[5-[2-(3-methoxyphenyl)ethyl]-3-pyridyl]-N4,N4-dipropyl-3H-1-benzazepine-4,8-dicarboxamide], the EC50 was 10 nM at human TLR8 and more than 100000 nM on human TLR7.
Consider `CCCN(CCC)C(=O)C1=Cc2ccc(C(=O)Nc3cncc(CCCCCCN)c3)cc2N=C(N)C1` [Example 74, 2-Amino-N8-[5-(6-aminohexyl)-3-pyridyl]-N4,N4-dipropyl-3H-1-benzazepine-4,8-dicarboxamide], for which the values for the EC50 at human TLR8 and at human TLR7 were 27 nM and more than 100000 nM, respectively.
`CCCN(CCC)C(=O)C1=Cc2ccc(C(=O)Nc3ccc(CCCN)nc3)cc2N=C(N)C1` [Example 75, 2-Amino-N8-[6-(3-aminopropyl)-3-pyridyl]-N4,N4-dipropyl-3H-1-benzazepine-4,8-dicarboxamide]: the EC50 at human TLR8 was 10 nM; on human TLR7, more than 100000 nM.
For `CCCN(CCC)C(=O)C1=Cc2ccc(C(=O)Nc3cncc(CCCCN)c3)cc2N=C(N)C1` [Example 76, 2-Amino-N8-[5-(4-aminobutyl)-3-pyridyl]-N4,N4-dipropyl-3H-1-benzazepine-4,8-dicarboxamide] the same measures were 24 nM and more than 100000 nM.
For `CCCN(CCC)C(=O)C1=Cc2ccc(C(=O)Nc3ccc(CCCCN)nc3)cc2N=C(N)C1` [Example 77, 2-Amino-N8-[6-(4-aminobutyl)-3-pyridyl]-N4,N4-dipropyl-3H-1-benzazepine-4,8-dicarboxamide] the same measures were 8 nM and more than 100000 nM.
As for `CCCN(CCC)C(=O)C1=Cc2ccc(C(=O)Nc3cncc(CN(C)C)c3)cc2N=C(N)C1` [Example 78, 2-Amino-N8-[5-[(dimethylamino)methyl]-3-pyridyl]-N4,N4-dipropyl-3H-1-benzazepine-4,8-dicarboxamide], the results for the EC50 at human TLR8 and on human TLR7 were 12 nM and more than 100000 nM, respectively.
For `CCCN(CC1CC1)C(=O)C1=Cc2ccc(C(=O)Nc3cncc(OCC)c3)cc2N=C(N)C1` [Example 79, 2-Amino-N4-(cyclopropylmethyl)-N8-(5-ethoxy-3-pyridyl)-N4-propyl-3H-1-benzazepine-4,8-dicarboxamide] the same measures were 2 nM and 31000 nM.
For `CCCN(CCC)C(=O)C1=Cc2ccc(C(=O)Nc3cncc(CCN)c3)cc2N=C(N)C1` [Example 80, 2-Amino-N8-[5-(2-aminoethyl)-3-pyridyl]-N4,N4-dipropyl-3H-1-benzazepine-4,8-dicarboxamide] the same measures were 17 nM and more than 100000 nM.
